Measurements taken from article PMC3274752 (Cancer discovery, 2011).

Tests used:
[1] = test system: NCI-H1703 xenograft tumors; experiment: Xenograft of NCI-H1703 in athymic nude mice; assay type: in vivo; details: 50 mg/kg oral gavage, two weeks
[2] = test system: DDR2-mutant HCC-366 cells; details: cited from earlier work
[3] = test system: SCC lines harboring DDR2 mutations; experiment: Proliferation and viability of SCC lines harboring DDR2 mutations; assay type: cell-based; details: for inhibition of proliferation: SCC lines harboring DDR2 mutations
[4] = test system: NIH-3T3 cells expressing DDR2 L63V; experiment: Soft agar colony formation, NIH-3T3 expressing DDR2 L63V; assay type: cell-based; details: single application at the time of plating
NCI-H1703 SCC cell line = details: NCI-H1703, PDGFRA amplification, positive control
[5] = cited from earlier work
[6] = test system: NCI-H2286 xenograft tumors; experiment: Xenograft of NCI-H2286 in athymic nude mice; assay type: in vivo; details: 50 mg/kg oral gavage, two weeks
[7] = test system: Ba/F3 cells expressing DDR2 mutations; experiment: Four-day proliferation of IL-3-independent Ba/F3 cells expressing DDR2 mutants; assay type: cell-based; details: for killing / proliferation of DDR2-transformed Ba/F3 cells: IL-3-independent Ba/F3 cells expressing DDR2 mutations, single agent
[8] = test system: Ba/F3 cells, vector control grown in the presence of IL-3; experiment: Four-day proliferation of control Ba/F3 cells grown in IL-3; assay type: cell-based; details: Mus musculus, BaF3, 96 h, read-out: mean calculated IC50 for the control
A549 cell line = experiment: Cell-Titer-Glo proliferation, six days, A549; assay type: cell-based; details: Homo sapiens, A549, read-out: calculated IC50, proliferation
[9] = test system: Ba/F3 cells expressing DDR2 L63V; assay type: cell-based; details: Ba/F3 DDR2 L63V grown in 50 nM nilotinib

For `Cc1nc(Nc2ncc(C(=O)Nc3c(C)cccc3Cl)s2)cc(N2CCN(CCO)CC2)n1` [dasatinib], the tumor size [1] is listed as “decrease in tumor size”, the “rank of sensitivity among 83 NSCLC cell lines” value ([2]; HCC-366) is listed as “most sensitive squamous cell lung cancer line to dasatinib” and the “cellular annexin V staining” value ([3]; 48 hours after addition of drug, data not shown) is listed as “increase in cellular annexin V staining”. For the same molecule, the “cell death versus cell cycle arrest by trypan blue exclusion” value ([3]; DDR2 mutant cell lines) was “cell death as opposed to cell cycle arrest”, the “colony formation in soft agar” value [4] was “Colony formation could be inhibited” and the “sensitivity in proliferation assay” value (NCI-H1703 SCC cell line) was “sensitive to both drugs”. The toxicity in patients [5] was “myelosuppression and the development of pleural and pericardial effusions”, the tumor size [6] was “decrease in tumor size” and the IC50 ([7]; Mus musculus, BaF3, 96 h, read-out: mean calculated IC50 for the mutants) was 0.68 µM. It also gave an IC50 [8] of 30 µM and an IC50 (A549 cell line) of 7.4 µM.

With `Cc1ccc(C(=O)Nc2ccc(CN3CCN(C)CC3)c(C(F)(F)F)c2)cc1C#Cc1cnc2cccnn12` [AP24534] the inhibition of proliferation [3] was “inhibited the proliferation of SCC lines harboring DDR2 mutations” and the “killing / proliferation of DDR2-transformed Ba/F3 cells” value (“killing / proliferation” for short) [7] was “effective in killing”.

In the case of `C#Cc1cccc(Nc2ncnc3cc(OCCOC)c(OCCOC)cc23)c1` [erlotinib], the GI50 ([2]; DDR2 mutant HCC-366 cell line) is given as 0.99 µM and the “sensitivity relative to dasatinib” value ([3]; HCC-366 and NCI-H2286, initial experiments, data not shown) is given as “at least ten-fold less than dasatinib”.

In the case of `CN1CCN(CCOc2cc(OC3CCOCC3)c3c(Nc4c(Cl)ccc5c4OCO5)ncnc3c2)CC1` [AZD0530], the “proliferation on addition of AZD0530 to 50 nM nilotinib” value [9] is reported as “marked reduction in proliferation” and the “killing / proliferation” value [7] is reported as “modest effect on the proliferation”.

For `Cc1cn(-c2cc(NC(=O)c3ccc(C)c(Nc4nccc(-c5cccnc5)n4)c3)cc(C(F)(F)F)c2)cn1` [nilotinib], the inhibition of proliferation [3] was “inhibited the proliferation of SCC lines harboring DDR2 mutations”, the “effect on proliferation at 50 nM” value ([7]; 50 nM, wild-type Ba/F3 cells or Ba/F3 cells expressing DDR2 mutations) was “little effect on proliferation” and the “killing / proliferation” value [7] was “modest activity”.
